Source: patent publication EP4818193A1, “COMPOSITION AND METHOD FOR TREATING NEONATAL HYPOXIC-ISCHEMIC ENCEPHALOPATHY” (Suzhou Glenkol Pharma Technology Co., Ltd., priority 2023, dated 2025)

Columns and labels:
[1] = test system: cerebral cortical neural cells; experiment: Lactate dehydrogenase (LDH) cytotoxicity assay after oxygen-glucose deprivation; type: cell-based, neonatal rats; parameters: dose or concentration left out as unconfirmed; conditions: added at initiation of oxygen-glucose deprivation; 24 hours after injury; compared to untreated oxygen-glucose deprivation group, p < 0.05
[2] = test system: cerebral cortical neural cells; experiment: MTT assay for cell viability after oxygen-glucose deprivation; type: cell-based, neonatal rats; parameters: dose or concentration left out as unconfirmed; conditions: added at initiation of oxygen-glucose deprivation; 24 hours after injury; compared to untreated oxygen-glucose deprivation group, p < 0.05

Davunetide [NaP] was tested, and the LDH release levels [1] was “significantly reduced” and the MTT formation levels [2] was “significantly increased”.
